Results from ChEMBL document CHEMBL4507276 (2021).

Assays:
[1] = biological target: 5'-AMP-activated protein kinase catalytic subunit alpha-1 (Homo sapiens) (UniProt Q13131); conditions: Compound concentration 1000.0 nM
[2] = biological target: Casein kinase II subunit alpha (Homo sapiens) (UniProt P68400); conditions: Compound concentration 1000.0 nM
[3] = tested on: Receptor-type tyrosine-protein kinase FLT3 (Homo sapiens), P36888 [UNDEFINED MUTATION]; conditions: Compound concentration 1000.0 nM
[4] = biological target: T1, Tyrosine-protein kinase JAK3 (Homo sapiens) (UniProt P52333); conditions: Compound concentration 1000.0 nM
T1 sequence (whole entry): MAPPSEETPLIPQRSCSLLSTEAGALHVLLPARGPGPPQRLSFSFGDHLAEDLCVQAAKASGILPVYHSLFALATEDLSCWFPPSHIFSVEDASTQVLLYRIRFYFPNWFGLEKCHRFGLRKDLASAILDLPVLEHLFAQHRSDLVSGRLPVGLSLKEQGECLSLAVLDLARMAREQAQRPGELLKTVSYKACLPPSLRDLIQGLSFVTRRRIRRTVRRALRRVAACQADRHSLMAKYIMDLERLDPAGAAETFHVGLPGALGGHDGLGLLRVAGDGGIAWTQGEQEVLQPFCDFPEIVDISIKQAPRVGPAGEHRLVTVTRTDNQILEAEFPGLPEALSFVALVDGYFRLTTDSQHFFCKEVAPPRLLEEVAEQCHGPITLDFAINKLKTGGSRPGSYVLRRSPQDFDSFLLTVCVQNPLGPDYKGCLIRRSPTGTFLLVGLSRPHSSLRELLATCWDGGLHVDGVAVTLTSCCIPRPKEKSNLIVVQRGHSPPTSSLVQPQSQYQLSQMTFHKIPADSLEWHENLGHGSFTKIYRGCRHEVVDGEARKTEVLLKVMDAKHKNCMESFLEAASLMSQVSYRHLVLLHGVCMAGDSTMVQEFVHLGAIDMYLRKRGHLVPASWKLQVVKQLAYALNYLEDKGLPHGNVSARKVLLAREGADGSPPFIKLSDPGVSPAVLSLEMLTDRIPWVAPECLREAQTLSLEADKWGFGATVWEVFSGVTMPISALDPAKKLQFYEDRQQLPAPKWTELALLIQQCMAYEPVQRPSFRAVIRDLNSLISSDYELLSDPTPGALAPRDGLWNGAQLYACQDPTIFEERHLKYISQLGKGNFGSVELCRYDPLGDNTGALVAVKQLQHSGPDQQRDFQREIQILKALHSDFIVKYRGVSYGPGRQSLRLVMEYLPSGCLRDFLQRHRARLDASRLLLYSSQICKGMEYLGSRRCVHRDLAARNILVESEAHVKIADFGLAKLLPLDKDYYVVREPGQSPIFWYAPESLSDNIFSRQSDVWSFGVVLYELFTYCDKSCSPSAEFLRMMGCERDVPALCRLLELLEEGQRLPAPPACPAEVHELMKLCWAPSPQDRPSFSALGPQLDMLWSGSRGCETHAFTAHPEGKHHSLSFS

[5] = biological target: T2, Tyrosine-protein kinase Mer (Homo sapiens) (UniProt Q12866); conditions: Compound concentration 1000.0 nM
T2 sequence (whole entry): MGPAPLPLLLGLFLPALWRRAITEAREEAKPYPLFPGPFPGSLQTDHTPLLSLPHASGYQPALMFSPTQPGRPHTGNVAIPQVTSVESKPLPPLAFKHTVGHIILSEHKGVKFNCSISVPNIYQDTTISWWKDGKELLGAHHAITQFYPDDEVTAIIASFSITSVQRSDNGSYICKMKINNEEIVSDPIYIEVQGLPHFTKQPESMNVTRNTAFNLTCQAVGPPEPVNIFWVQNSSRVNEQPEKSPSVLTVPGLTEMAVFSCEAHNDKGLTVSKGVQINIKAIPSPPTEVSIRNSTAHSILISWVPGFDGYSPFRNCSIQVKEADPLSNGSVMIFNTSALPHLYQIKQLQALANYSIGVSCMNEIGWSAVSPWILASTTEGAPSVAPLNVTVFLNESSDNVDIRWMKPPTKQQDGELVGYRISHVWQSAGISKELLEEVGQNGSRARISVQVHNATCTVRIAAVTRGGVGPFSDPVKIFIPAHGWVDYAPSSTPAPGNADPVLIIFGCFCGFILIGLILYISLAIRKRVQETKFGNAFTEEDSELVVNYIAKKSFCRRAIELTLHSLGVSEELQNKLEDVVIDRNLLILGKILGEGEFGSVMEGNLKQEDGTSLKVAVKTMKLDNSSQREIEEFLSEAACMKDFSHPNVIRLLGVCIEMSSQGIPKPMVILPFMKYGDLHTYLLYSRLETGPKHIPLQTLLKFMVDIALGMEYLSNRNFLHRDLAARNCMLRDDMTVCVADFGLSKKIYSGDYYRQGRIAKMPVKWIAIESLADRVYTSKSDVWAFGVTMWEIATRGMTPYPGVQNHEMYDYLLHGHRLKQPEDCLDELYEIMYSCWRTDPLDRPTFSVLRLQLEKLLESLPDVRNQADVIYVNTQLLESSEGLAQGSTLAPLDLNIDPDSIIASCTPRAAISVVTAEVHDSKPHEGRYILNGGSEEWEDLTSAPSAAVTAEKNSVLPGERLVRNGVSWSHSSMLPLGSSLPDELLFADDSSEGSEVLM

[6] = tested on: Phosphatidylinositol 4,5-bisphosphate 3-kinase catalytic subunit alpha isoform (Homo sapiens), P42336 [E542K]; conditions: Compound concentration 1000.0 nM
[7] = biological target: STE20-like serine/threonine-protein kinase (Homo sapiens) (UniProt Q9H2G2); conditions: Compound concentration 1000.0 nM
[8] = biological target: T3, Muscarinic acetylcholine receptor M2 (Homo sapiens) (UniProt P08172); conditions: Compound concentration 10.0 uM
T3 sequence (whole entry): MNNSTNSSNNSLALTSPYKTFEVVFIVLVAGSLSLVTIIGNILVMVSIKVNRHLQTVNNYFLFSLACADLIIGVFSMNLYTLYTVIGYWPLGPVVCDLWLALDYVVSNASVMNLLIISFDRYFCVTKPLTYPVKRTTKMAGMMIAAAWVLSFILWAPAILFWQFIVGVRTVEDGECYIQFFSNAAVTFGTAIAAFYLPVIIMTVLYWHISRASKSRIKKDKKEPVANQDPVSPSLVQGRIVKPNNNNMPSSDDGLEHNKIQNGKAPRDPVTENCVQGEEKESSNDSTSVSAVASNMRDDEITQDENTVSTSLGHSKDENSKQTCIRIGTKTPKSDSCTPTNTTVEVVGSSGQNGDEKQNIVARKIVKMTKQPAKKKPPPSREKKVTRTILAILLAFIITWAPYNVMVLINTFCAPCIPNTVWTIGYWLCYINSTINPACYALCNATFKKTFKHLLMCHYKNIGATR

Sequence of Phosphatidylinositol 4,5-bisphosphate 3-kinase catalytic subunit alpha isoform (Homo sapiens), P42336 [E542K] (P42336 whole entry E542K, canonical isoform): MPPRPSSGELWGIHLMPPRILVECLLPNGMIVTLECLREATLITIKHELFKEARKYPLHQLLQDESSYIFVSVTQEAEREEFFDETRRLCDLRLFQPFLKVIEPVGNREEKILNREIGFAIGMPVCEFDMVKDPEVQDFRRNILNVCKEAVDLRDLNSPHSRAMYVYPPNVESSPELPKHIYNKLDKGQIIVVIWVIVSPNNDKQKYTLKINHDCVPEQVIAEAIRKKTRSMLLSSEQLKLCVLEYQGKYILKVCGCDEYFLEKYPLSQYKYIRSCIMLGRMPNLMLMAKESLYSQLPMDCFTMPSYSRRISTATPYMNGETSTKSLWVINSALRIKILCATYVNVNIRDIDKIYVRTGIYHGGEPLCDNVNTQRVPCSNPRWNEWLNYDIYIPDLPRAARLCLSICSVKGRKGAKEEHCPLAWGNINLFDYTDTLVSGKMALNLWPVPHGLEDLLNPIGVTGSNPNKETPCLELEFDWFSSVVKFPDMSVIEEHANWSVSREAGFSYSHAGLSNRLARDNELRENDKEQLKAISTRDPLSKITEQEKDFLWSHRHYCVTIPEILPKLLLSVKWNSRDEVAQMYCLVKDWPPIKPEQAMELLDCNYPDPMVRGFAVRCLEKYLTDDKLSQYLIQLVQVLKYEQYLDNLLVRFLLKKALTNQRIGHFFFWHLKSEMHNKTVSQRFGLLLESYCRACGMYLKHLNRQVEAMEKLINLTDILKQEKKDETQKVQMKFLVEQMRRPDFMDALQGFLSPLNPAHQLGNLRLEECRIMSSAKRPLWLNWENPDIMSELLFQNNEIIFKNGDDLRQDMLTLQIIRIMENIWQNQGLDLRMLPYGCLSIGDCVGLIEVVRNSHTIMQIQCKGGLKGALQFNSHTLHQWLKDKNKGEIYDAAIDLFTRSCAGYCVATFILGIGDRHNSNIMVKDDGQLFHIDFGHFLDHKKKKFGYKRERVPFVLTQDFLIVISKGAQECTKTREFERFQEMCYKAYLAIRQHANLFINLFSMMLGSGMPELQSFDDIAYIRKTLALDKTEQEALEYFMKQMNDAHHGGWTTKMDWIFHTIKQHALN
Sequence of Receptor-type tyrosine-protein kinase FLT3 (Homo sapiens), P36888 [UNDEFINED MUTATION] (P36888 whole entry, looked up, change not shown): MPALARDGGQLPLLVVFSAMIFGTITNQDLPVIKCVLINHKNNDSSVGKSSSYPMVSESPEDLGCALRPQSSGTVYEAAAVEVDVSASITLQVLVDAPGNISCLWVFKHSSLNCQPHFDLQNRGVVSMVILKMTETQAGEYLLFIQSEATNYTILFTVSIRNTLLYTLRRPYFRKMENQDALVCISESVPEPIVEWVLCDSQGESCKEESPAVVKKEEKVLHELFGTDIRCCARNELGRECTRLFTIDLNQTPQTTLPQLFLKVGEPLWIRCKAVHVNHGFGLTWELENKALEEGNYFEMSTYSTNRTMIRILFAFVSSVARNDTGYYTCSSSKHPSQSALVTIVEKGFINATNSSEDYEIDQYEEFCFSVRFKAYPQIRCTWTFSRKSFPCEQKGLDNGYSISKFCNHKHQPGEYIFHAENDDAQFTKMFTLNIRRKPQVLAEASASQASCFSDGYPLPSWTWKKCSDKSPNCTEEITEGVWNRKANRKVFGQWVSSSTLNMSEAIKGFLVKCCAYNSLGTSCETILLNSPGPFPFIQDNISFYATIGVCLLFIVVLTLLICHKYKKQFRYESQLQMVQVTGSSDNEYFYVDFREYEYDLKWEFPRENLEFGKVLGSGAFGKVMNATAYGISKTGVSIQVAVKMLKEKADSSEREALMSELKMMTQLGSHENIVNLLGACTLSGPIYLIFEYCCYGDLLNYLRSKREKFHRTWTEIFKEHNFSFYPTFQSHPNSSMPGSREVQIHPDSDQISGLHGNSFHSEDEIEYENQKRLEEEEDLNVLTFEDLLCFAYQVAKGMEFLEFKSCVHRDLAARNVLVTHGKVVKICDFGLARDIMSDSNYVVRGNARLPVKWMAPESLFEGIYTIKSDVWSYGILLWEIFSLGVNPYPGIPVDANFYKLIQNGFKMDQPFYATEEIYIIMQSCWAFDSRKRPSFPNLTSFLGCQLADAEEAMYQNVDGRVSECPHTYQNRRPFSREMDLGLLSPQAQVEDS
Sequence of Casein kinase II subunit alpha (Homo sapiens) (P68400 whole entry, looked up): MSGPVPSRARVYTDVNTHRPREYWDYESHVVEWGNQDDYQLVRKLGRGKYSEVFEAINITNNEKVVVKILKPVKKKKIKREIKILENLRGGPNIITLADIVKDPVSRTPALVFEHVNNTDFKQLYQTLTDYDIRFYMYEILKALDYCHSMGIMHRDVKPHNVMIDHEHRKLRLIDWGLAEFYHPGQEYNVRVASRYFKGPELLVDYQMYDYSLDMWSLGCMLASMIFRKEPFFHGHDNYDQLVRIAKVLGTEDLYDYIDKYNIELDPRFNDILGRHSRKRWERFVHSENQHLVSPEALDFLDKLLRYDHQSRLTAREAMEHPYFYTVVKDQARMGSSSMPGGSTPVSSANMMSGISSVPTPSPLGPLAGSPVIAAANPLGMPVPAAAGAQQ
Sequence of 5'-AMP-activated protein kinase catalytic subunit alpha-1 (Homo sapiens) (Q13131 whole entry, looked up): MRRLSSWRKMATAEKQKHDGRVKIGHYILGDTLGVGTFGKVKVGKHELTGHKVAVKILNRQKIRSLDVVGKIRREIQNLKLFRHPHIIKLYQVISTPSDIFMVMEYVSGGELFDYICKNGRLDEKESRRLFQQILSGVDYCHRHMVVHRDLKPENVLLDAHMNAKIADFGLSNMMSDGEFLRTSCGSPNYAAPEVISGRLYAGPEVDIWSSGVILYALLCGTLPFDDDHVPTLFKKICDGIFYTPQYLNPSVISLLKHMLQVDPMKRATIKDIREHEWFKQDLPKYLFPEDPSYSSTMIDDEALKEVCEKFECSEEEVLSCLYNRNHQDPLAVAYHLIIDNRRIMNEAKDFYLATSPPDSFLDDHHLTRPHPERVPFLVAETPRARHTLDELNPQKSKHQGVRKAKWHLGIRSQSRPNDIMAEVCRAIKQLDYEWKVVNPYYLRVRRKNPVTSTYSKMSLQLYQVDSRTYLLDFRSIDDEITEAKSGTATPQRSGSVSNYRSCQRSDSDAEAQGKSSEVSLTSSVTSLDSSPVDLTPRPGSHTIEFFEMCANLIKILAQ
Sequence of STE20-like serine/threonine-protein kinase (Homo sapiens) (Q9H2G2 whole entry, looked up): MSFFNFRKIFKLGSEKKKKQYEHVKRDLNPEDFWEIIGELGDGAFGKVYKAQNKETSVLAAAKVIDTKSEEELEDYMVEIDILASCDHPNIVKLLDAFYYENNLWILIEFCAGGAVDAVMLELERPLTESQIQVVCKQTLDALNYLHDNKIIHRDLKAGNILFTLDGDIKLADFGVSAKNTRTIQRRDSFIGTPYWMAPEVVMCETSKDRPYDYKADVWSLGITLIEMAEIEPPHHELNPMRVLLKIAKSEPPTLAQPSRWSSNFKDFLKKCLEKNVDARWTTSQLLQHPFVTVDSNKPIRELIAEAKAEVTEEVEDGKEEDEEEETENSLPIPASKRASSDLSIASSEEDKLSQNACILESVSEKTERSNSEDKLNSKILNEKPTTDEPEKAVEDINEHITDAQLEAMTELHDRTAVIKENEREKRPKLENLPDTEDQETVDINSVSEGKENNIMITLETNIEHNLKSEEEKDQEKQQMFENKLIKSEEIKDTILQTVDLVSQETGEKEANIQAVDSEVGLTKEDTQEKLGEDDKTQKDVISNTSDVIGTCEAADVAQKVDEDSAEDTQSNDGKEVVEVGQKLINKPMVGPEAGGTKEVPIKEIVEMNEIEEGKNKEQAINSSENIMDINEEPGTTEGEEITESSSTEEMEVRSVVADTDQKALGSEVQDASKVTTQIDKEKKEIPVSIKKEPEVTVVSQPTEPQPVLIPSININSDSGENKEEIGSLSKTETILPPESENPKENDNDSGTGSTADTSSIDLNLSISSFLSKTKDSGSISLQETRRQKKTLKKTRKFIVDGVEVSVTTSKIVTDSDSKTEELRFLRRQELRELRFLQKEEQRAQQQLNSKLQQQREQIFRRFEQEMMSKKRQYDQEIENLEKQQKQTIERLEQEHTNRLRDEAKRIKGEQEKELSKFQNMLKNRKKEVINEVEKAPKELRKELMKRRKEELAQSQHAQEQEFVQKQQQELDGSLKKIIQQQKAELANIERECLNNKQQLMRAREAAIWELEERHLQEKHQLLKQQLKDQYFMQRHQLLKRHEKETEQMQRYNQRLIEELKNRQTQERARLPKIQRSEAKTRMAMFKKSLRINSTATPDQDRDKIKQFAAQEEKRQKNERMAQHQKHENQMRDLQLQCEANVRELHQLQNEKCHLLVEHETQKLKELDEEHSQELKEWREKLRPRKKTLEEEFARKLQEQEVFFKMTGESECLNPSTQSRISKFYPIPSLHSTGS

CN(C)C(=O)Cn1cc(-c2nc(C3(c4ccc(-c5cnc(N)nc5)cc4)CC3)no2)cn1 [BI 0153]
inactive: residual activity [1] 98% | residual activity [2] 73% | residual activity [3] 89% | residual activity [4] 80% | residual activity [5] 88% | residual activity [6] 76% | residual activity [7] 77% | inhibition [8] -0.311%

CN(C)C(=O)Cn1cc(-c2nc([C@@](C)(c3ccc(-c4cnc(N)nc4)cc3)C3CC3)no2)cn1 [BI 665915]
inactive: residual activity [1] 95% | residual activity [2] 88% | residual activity [3] 62% | residual activity [4] 95% | residual activity [5] 100% | residual activity [6] 79% | residual activity [7] 94% | inhibition [8] -7.53%
